“And” between values parts separate entries of the source, which are not always exact repeats. Equal values may be shown once. Read-outs that look alike come from different tables or passages of the source.
Experiments:
[1] = system: tumor; conditions: animal models; cited from earlier work
[2] = system: 60 cancer cell lines (NCI 60 cancer cell line series); assay: NCI-DTP in vitro cancer screen, sulforhodamine B (SRB) growth inhibition, 48 hour exposure; assay type: cell-based, human
How it was run: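 Values come from the NCI-DTP screen database: -log GI50, the concentration giving 50% growth inhibition, derived from SRB cell-mass dose-response curves. Each line seeded at its own density, treated day 1 at five ten-fold-spaced doses in duplicate wells, stained after 48 h.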

[3] = system: 60 cancer cell lines (NCI 60 cancer cell line series); conditions: cited from earlier work

CC(=O)O[C@@]12CO[C@@H]1C[C@H](O)[C@@]1(C)C(=O)[C@H](O)C3=C(C)[C@@H](OC(=O)[C@H](O)[C@@H](NC(=O)OC(C)(C)C)c4ccccc4)C[C@@](O)([C@@H](OC(=O)c4ccccc4)[C@H]21)C3(C)C [Taxotere, docetaxel]
anti-tumor activity [1]: good anti-tumor activity

Bleomycin
classification of cell line as Low(1), Medium(2) or High(3) sensitivity to compound ([2]; Breast MCF7(I) (CL5001)): 2 | classification of cell line as Low(1), Medium(2) or High(3) sensitivity to compound ([2]; Breast MCF7/ADRr (CL5002)): 2 | classification of cell line as Low(1), Medium(2) or High(3) sensitivity to compound ([2]; Breast MDA-MB-231 CL5005): 1 | classification of cell line as Low(1), Medium(2) or High(3) sensitivity to compound ([2]; Breast MDA-MB-435 (CL5011)): 1 | classification of cell line as Low(1), Medium(2) or High(3) sensitivity to compound ([2]; Breast MDA-N CL5012): 1 | classification of cell line as Low(1), Medium(2) or High(3) sensitivity to compound ([2]; Breast T-47D (CL5014)): 2 | classification of cell line as Low(1), Medium(2) or High(3) sensitivity to compound ([2]; CNS SF-268 CL12014): 2 | classification of cell line as Low(1), Medium(2) or High(3) sensitivity to compound ([2]; CNS SF-295 CL12015): 3 | classification of cell line as Low(1), Medium(2) or High(3) sensitivity to compound ([2]; CNS SF-539 CL12016): 3 | classification of cell line as Low(1), Medium(2) or High(3) sensitivity to compound ([2]; CNS SNB-19 (CL12002)): 2 | classification of cell line as Low(1), Medium(2) or High(3) sensitivity to compound ([2]; CNS SNB-75(I) CL12005): 2 | classification of cell line as Low(1), Medium(2) or High(3) sensitivity to compound ([2]; CNS U251(I) CL12009): 2 | classification of cell line as Low(1), Medium(2) or High(3) sensitivity to compound ([2]; Colon COLO-250 CL4010): 2 | classification of cell line as Low(1), Medium(2) or High(3) sensitivity to compound ([2]; Colon HCT-15 CL4015): 2 | classification of cell line as Low(1), Medium(2) or High(3) sensitivity to compound ([2]; Colon HCT-116 (CL4003)): 2 | classification of cell line as Low(1), Medium(2) or High(3) sensitivity to compound ([2]; Colon HT29(I) CL4001): 1 | classification of cell line as Low(1), Medium(2) or High(3) sensitivity to compound ([2]; Colon KM12 (CL4017)): 1 | classification of cell line as Low(1), Medium(2) or High(3) sensitivity to compound ([2]; Colon SW-620 (CL4009)): 2 | classification of cell line as Low(1), Medium(2) or High(3) sensitivity to compound ([2]; Leukemia CCRF-CEM(I) (CL7003)): 2 | classification of cell line as Low(1), Medium(2) or High(3) sensitivity to compound ([2]; Leukemia HL-60(I) (CL7008)): 2 | classification of cell line as Low(1), Medium(2) or High(3) sensitivity to compound ([2]; Leukemia K562(I) CL7005): 2 | classification of cell line as Low(1), Medium(2) or High(3) sensitivity to compound ([2]; Leukemia MOLT-4 (CL7006)): 2 | classification of cell line as Low(1), Medium(2) or High(3) sensitivity to compound ([2]; Leukemia SR CL7019): 3 | classification of cell line as Low(1), Medium(2) or High(3) sensitivity to compound ([2]; Melanoma LOX IMVI CL10001): 3 | classification of cell line as Low(1), Medium(2) or High(3) sensitivity to compound ([2]; Melanoma M14 (CL10014)): 2 | classification of cell line as Low(1), Medium(2) or High(3) sensitivity to compound ([2]; Melanoma MALME-3M CL10002): 2 | sensitivity class NSCLC NCI-H23(I) CL1001 ([2]; cell line NSCLC NCI-H23(I), CL1001): 2 | sensitivity class NSCLC NCI-H332M CL1017 ([2]; cell line NSCLC NCI-H332M, CL1017): 1 | sensitivity class NSCLC NCI-H522 CL1003 ([2]; cell line NSCLC NCI-H522, CL1003): 2 | sensitivity class Ovarian IGROV1 CL6010 ([2]; cell line Ovarian IGROV1, CL6010): 2 | sensitivity class Ovarian OVCAR-3 CL6001 ([2]; cell line Ovarian OVCAR-3, CL6001): 2 | sensitivity class Ovarian OVCAR-4 CL6002 ([2]; cell line Ovarian OVCAR-4, CL6002): 2 | sensitivity class Ovarian OVCAR-5 CL6003 ([2]; cell line Ovarian OVCAR-5, CL6003): 2 | sensitivity class Ovarian OVCAR-8 CL6005 ([2]; cell line Ovarian OVCAR-8, CL6005): 2 | sensitivity class Ovarian SK-OV-3 CL6011 ([2]; cell line Ovarian SK-OV-3, CL6011): 2 | sensitivity class Prostate DU-145 CL11003 ([2]; cell line Prostate DU-145, CL11003): 2 | sensitivity class Prostate PC-3(I) CL11001 ([2]; cell line Prostate PC-3(I), CL11001): 2 | sensitivity class Renal 786-O CL9018 ([2]; cell line Renal 786-O, CL9018): 2 | sensitivity class Renal A498 CL9013 ([2]; cell line Renal A498, CL9013): 2 | sensitivity class Renal ACHN CL9023 ([2]; cell line Renal ACHN, CL9023): 3 | sensitivity class Renal SN12C CL9008 ([2]; cell line Renal SN12C, CL9008): 2 | sensitivity class Renal TK10 CL9024 ([2]; cell line Renal TK10, CL9024): 1 | 1 # of Low ([2]; number of the 60 cell lines classified Low (1) sensitivity): 12 | -Log (GI50) ([3]; Breast BT-549 (CL5013)): 5.0 and 5.1 | -Log (GI50) ([3]; Breast MCF7(I) (CL5001)): 5.7 and 5.5 | -Log (GI50) ([3]; Breast MCF7/ADRr (CL5002)): 6.1 and 6.0 | -Log (GI50) ([3]; Breast MDA-MB-435 (CL5011)): 4.7 and 4.6 | -Log (GI50) ([3]; Breast MDA-N CL5012): 4.8 and 4.6 | -Log (GI50) ([3]; Breast T-47D (CL5014)): 5.3 and 5.2 | -Log (GI50) ([3]; CNS SF-295 CL12015): 7.0 and 7.2 | -Log (GI50) ([3]; CNS SF-539 CL12016): 7.7 | -Log (GI50) ([3]; CNS SNB-19 (CL12002)): 5.4 and 5.5 | -Log (GI50) ([3]; Colon COLO-250 CL4010): 5.2 and 5.3 | -Log (GI50) ([3]; Colon HCC-2998 (CL4002)): 5.0 and 4.7 | -Log (GI50) ([3]; Colon HCT-116 (CL4003)): 6.4 and 6.2 | -Log (GI50) ([3]; Colon HT29(I) CL4001): 4.9 and 4.8 | -Log (GI50) ([3]; Colon KM12 (CL4017)): 4.9 and 4.8 | -Log (GI50) ([3]; Colon SW-620 (CL4009)): 5.1 and 5.0 | -Log (GI50) ([3]; Leukemia HL-60(I) (CL7008)): 5.2 and 5.3 | -Log (GI50) ([3]; Leukemia MOLT-4 (CL7006)): 5.9 and 6.2 | -Log (GI50) ([3]; Leukemia RPMI-8226(I) (CL7010)): 4.8 and 4.9 | -Log (GI50) ([3]; Melanoma LOX IMVI CL10001): 6.8 | -Log (GI50) ([3]; Melanoma M14 (CL10014)): 5.8 and 5.5 | -Log (GI50) ([3]; NSCLC NCI-H23(I) CL1001): 6.2 and 6.3 | -Log (GI50) ([3]; NSCLC NCI-H332M CL1017): 4.8 and 4.5 | -Log (GI50) ([3]; Ovarian OVCAR-3 CL6001): 5.3 | -Log (GI50) ([3]; Ovarian OVCAR-8 CL6005): 5.5 and 5.8 | -Log (GI50) ([3]; Ovarian SK-OV-3 CL6011): 5.2 and 5.4 | -Log (GI50) ([3]; Prostate DU-145 CL11003): 5.4 and 5.5 | -Log (GI50) ([3]; Prostate PC-3(I) CL11001): 5.1 and 5.3 | -Log (GI50) ([3]; Renal ACHN CL9023): 8.1 and 7.9 | -Log (GI50) ([3]; Renal RXF-393 CL9016): 6.7 and 6.6 | -Log (GI50) ([3]; Renal SN12C CL9008): 6.0 and 5.9 | -Log (GI50) ([3]; Renal TK10 CL9024): 5.0 and 4.7
